Assay [1] concerns the target T1, HDAC9 (Homo sapiens, UniProt Q9UKV0).
T1 construct: purchased Reaction Biology (Devault, PA)
The experiment in a line: In vitro HDAC enzymatic assay (Reaction Biology). The assay is classed as biochemical. Conditions: dose response, FIG. 2A-2B.
Procedure: (§1) The in vitro HDAC enzymatic assays were performed by Reaction Biology (Devault, PA).

Assay [2] concerns the target HDAC4 (Homo sapiens, UniProt P56524). In words: In vitro HDAC enzymatic assay (Reaction Biology). The settings on record: dose response, FIG. 2A-2B. The assay is classed as biochemical. More on the design: purchased Reaction Biology (Devault, PA).
Procedure: as §1
Assay [3] deals with T2, HDAC7 (Homo sapiens, UniProt Q8WUI4).
T2 sequence (Q8WUI4 1-952): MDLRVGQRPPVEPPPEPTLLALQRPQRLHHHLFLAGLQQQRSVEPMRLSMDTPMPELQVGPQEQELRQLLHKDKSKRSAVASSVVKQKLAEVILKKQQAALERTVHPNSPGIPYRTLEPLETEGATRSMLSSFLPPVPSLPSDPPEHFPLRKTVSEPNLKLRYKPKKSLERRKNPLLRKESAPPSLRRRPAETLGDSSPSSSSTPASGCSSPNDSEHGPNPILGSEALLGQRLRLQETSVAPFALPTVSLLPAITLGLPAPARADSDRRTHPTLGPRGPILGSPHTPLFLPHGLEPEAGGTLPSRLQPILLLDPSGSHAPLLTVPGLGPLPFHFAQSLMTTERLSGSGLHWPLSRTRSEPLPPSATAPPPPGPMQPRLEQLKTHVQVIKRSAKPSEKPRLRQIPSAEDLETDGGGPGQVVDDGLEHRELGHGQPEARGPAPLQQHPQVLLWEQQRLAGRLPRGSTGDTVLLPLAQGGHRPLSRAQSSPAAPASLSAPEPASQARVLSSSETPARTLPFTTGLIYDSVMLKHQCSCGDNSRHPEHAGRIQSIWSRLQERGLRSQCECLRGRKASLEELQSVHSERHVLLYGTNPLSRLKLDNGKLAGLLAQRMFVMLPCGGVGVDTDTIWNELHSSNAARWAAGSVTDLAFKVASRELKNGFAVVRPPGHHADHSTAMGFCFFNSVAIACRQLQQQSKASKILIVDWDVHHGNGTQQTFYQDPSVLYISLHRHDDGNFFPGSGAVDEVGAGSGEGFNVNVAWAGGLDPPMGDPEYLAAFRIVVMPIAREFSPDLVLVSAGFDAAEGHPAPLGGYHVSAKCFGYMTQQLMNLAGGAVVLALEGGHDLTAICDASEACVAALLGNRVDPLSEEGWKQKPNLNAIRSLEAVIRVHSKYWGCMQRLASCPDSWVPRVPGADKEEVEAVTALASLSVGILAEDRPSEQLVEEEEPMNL
The experiment in a line: In vitro HDAC enzymatic assay (Reaction Biology). The assay is classed as biochemical. More on the design: purchased Reaction Biology (Devault, PA). The settings on record: dose response, FIG. 2A-2B.
Procedure: as §1

For assay [4], the target named is T2, HDAC7. In words: Global quantitative proteomics, change in protein abundance in Kelly cells. The assay is classed as cell-based. Further details: endogenous in cells; host or cells: Kelly cells. The settings on record: 1 μM, 5-hour treatment, vs DMSO, FIG. 3. Here is the method: Cells were washed once with phosphate-buffered saline (PBS), harvested with CellstripperTM (Corning®), washed two additional times with PBS and snap frozen in liquid nitrogen. […] Proteins were precipitated using methanol/chloroform in Donovan et al., Elife 7:e38430 (2018). The precipitated protein was resuspended in 4 M Urea, 50 mM HEPES pH 7.4, followed by dilution to 1 M urea with the addition of 200 mM EPPS, pH 8. Proteins were first digested with LysC (1:50: enzyme:protein) for 12 hours at room temperature. The LysC digestion was diluted to 0.5 M Urea with 200 mM EPPS pH 8 followed by digestion with trypsin (1:50: enzyme:protein) for 6 hours at 37° C. Tandem mass tag (TMT) reagents (Thermo Fisher Scientific) were dissolved in anhydrous acetonitrile (ACN) according to manufacturer's instructions. Anhydrous ACN was added to each peptide sample to a final concentration of 30% v/v, and labeling was induced with the addition of TMT reagent to each sample at a ratio of 1:4 peptide:TMT label. The 11-plex labeling reactions were performed for 1.5 hours at room temperature and the reaction quenched by the addition of hydroxylamine to a final concentration of 0.3% for 15 minutes at room temperature. The sample channels were combined at a 1:1 ratio, desalted using C18 solid phase extraction cartridges (Waters®) and analyzed by LC-MS for channel ratio comparison. Samples were then combined using the adjusted volumes determined in the channel ratio analysis and dried down in a speed vacuum. The combined sample was then resuspended in 1% formic acid, and acidified (pH 2-3) before being subjected to desalting with C18 SPE (Sep-Pak®-, Waters®). […] The 96 resulting fractions were then pooled in a non-contiguous manner into 24 fractions and these fractions were used for subsequent mass spectrometry analysis. Data were collected using an Orbitrap FusionTM LumosTM mass spectrometer (Thermo Fisher Scientific, San Jose, CA, USA) coupled with a […] pump (Thermo Fisher Scientific). Peptides were separated on an EasySprayTM ES803.rev2 75 μm inner diameter microcapillary column (ThermoFisher Scientific). Peptides were separated using a 190 min gradient of 6-27% acetonitrile in 1.0% formic acid with a flow rate of 300 nL/min. Each analysis used an MS3-based TMT method as described in McAlister et al., Anal. Chem. 86(14):7150-7158 (2014). The data were acquired using a mass range of m/z 340-1350, resolution 120,000, automatic gain control (AGC) target 1×10^6, maximum injection time 100 ms, dynamic exclusion of 120 seconds for the peptide measurements in the Orbitrap FusionTM LumosTM mass spectrometer. Data dependent MS2 spectra were acquired in the ion trap with a normalized collision energy (NCE) set at 55%, AGC target set to 1.5×10^5 and a maximum injection time of 150 ms. MS3 scans were acquired in the Orbitrap FusionTM LumosTM mass spectrometer with a higher energy collision dissociation (HCD) set to 55%, AGC target set to 1.5×10^5, maximum injection time of 150 ms, resolution at 50,000 and with a maximum synchronous precursor selection (SPS) precursors set to 10. Proteome Discoverer 2.2 (Thermo Fisher Scientific) was used for .RAW file processing and controlling peptide and protein level false discovery rates, assembling proteins from peptides, and protein quantification from peptides. MS/MS spectra were searched against a Swissprot human database (December 2016) with both the forward and reverse sequences. […] TMT reporter ion intensities were measured using a 0.003 Da window around the theoretical m/z for each reporter ion in the MS3 scan. […] Reporter ion intensities were normalized and scaled using in-house scripts in the R framework. Statistical analysis was carried out using the limma package within the R framework as described in Ritchie et al., Nucleic Acids Res. 43(7):e47 (2015).

Molecules are shown by their SMILES.

T1 sequence (Q9UKV0 whole entry): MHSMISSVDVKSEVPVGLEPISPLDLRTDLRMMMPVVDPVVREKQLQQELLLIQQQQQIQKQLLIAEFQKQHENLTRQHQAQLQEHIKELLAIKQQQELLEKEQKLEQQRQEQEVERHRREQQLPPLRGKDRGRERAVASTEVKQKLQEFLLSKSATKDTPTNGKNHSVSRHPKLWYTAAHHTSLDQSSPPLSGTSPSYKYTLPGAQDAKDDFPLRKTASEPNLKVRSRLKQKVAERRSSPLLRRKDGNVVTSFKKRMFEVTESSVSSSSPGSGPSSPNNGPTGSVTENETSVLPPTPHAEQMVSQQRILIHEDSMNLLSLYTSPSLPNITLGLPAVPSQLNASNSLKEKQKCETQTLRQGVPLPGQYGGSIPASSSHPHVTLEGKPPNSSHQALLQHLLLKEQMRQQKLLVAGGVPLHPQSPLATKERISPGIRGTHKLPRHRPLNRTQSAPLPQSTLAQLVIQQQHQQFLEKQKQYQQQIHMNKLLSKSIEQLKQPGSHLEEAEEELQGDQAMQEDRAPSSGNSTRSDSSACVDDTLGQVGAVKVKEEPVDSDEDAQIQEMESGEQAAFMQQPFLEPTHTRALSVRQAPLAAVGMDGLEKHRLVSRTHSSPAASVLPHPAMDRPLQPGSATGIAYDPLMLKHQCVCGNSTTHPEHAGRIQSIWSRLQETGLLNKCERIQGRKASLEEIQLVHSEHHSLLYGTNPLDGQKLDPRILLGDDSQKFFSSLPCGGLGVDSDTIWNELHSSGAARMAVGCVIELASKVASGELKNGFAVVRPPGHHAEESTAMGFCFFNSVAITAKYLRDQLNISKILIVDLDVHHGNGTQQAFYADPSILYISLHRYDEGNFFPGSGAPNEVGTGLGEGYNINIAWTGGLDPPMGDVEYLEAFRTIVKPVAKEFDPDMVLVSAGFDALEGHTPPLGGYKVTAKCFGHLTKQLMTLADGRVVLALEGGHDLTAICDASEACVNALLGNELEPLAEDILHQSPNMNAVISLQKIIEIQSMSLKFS
HDAC4, sequence (P56524 whole entry): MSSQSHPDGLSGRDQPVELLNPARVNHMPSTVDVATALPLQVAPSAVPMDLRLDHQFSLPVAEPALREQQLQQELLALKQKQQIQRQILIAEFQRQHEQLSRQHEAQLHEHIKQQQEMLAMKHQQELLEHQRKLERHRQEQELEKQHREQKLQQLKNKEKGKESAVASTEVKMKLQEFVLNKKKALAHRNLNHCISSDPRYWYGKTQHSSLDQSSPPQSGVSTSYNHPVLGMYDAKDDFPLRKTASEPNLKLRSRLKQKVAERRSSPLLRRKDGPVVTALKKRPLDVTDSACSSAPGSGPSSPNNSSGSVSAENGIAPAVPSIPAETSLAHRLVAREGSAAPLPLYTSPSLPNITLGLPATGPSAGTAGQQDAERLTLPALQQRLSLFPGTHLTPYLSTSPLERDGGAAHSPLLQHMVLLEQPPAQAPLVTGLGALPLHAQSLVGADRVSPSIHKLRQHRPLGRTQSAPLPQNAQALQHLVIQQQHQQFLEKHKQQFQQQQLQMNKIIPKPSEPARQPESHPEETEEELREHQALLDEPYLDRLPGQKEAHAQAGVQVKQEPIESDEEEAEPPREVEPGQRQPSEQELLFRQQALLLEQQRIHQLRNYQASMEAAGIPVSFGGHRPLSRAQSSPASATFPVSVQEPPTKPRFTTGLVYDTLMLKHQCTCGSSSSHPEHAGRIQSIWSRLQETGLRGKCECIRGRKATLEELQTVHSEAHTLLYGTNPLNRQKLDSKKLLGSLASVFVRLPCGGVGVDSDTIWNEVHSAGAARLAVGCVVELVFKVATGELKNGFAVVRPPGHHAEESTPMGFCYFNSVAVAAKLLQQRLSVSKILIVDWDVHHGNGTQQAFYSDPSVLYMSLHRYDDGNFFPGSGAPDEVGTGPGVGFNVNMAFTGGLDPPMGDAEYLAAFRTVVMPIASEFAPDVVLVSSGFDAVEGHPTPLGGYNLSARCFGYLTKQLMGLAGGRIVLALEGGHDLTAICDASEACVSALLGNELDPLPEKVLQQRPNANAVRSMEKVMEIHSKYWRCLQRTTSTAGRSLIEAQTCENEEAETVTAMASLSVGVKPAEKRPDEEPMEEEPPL

As for `O=C1CCC(N2C(=O)c3cccc(NCCCCCCN4CCC(CNC(=O)c5cccc(-c6noc(C(F)(F)F)n6)c5)(c5nc(-c6ccccc6)cs5)CC4)c3C2=O)C(=O)N1` (centres unmarked) [Compound 1], the “inhibition of HDAC9” value in assay [1] is given as “inhibited”. Further, the “inhibition of HDAC4” value in assay [2] is “inhibited”. Further, the “inhibition of HDAC7” value in assay [3] is “inhibited”. Besides, in assay [4], the “protein expression level of HDAC7” value is given as “selective reduction in protein expression level”.

On to `CCN(CCNc1cccc2c1C(=O)N(C1CCC(=O)NC1=O)C2=O)C[C@@H](C)NC(=O)c1ccc(-c2noc(C(F)(F)F)n2)cc1` (stereo partly drawn) [Compound 16, N-((2R)-1-((2-((2-(2,6-dioxopiperidin-3-yl)-1,3-dioxoisoindolin-4-yl)amino)ethyl)(ethyl)amino)propan-2-yl)-4-(5-(trifluoromethyl)-1,2,4-oxadiazol-3-yl)benzamide], for which, in assay [1], the “inhibition of HDAC9” value is listed as “inhibited”. For the same compound, in assay [2], the “inhibition of HDAC4” value is “inhibited”. Besides, in assay [3], the “inhibition of HDAC7” value is listed as “inhibited”. In assay [4], the “protein expression level of HDAC7” value is “reduction in protein expression level”.
